{"source": "patent US20260293949A1", "about": "“CARBONATION SENSATION IMPARTING OR ENHANCING AGENT” (TAKASAGO INTERNATIONAL CORPORATION, priority 2022, published 2026)", "key": {"[1]": {"test": "Sensory evaluation of carbonation sensation imparting in cola-flavored compressed tablet candy", "type": "in vivo", "settings": "for Carbonation sensation imparting evaluation result: compressed tablet candy, average score of six panelists, 1 to 5", "protocol": "(§1) In the following Examples, the action and effect were verified using a value obtained by calculating an average score of scores for imparting or enhancing fizziness by sensory evaluation conducted by specialized panelists. The expression “1 point” in the evaluation is the evaluation in the case where no component is added at all (no addition).\nDiethyl sebacate was separately added to a cola-flavored compressed tablet candy prepared according to the formulation shown in Table 14 using a pestle with a diameter of 7 mm, so as to reach a concentration shown in Table 15 below, and sensory evaluation was performed by six panelists to determine the extent to which fizziness was imparted as compared with a control in which diethyl sebacate was not added."}, "[2]": {"test": "Sensory evaluation of fizziness enhancement in cider-flavored carbonated beverage", "type": "in vivo", "settings": "for Fizziness enhancement evaluation result: average score of seven panelists, 1 to 5", "protocol": "as §1\nDiethyl sebacate was separately added to “Mitsuya Cider (registered trademark) Zero Strong (manufactured by Asahi Soft Drinks Co., Ltd.)” so as to reach the concentrations shown in Table 6 below, and sensory evaluation was performed by seven specialized panelists to determine the extent to which fizziness was enhanced as compared with a control in which diethyl sebacate was not added."}, "[3]": {"test": "Sensory evaluation of carbonation sensation imparting in black tea beverage with fruit juice", "type": "in vivo", "settings": "for Carbonation sensation imparting evaluation result: average score of seven panelists", "protocol": "as §1\nDiethyl sebacate was separately added to “Afternoon Tea Apple Tea Plus (registered trademark) (manufactured by Kirin Beverage Co., Ltd.)” so as to reach the concentrations shown in Table 9 below, and sensory evaluation was performed by seven specialized panelists to determine the extent to which fizziness was imparted as compared with a control in which diethyl sebacate was not added."}, "human TRPV1": {"molecular_target": "T1, human TRPV1 (Homo sapiens, UniProt Q8NER1)", "T1 construct": "doxycycline-inducible Flp-In T-REx 293 cells; Fluo-4 calcium assay", "T1 sequence (Q8NER1 whole entry)": "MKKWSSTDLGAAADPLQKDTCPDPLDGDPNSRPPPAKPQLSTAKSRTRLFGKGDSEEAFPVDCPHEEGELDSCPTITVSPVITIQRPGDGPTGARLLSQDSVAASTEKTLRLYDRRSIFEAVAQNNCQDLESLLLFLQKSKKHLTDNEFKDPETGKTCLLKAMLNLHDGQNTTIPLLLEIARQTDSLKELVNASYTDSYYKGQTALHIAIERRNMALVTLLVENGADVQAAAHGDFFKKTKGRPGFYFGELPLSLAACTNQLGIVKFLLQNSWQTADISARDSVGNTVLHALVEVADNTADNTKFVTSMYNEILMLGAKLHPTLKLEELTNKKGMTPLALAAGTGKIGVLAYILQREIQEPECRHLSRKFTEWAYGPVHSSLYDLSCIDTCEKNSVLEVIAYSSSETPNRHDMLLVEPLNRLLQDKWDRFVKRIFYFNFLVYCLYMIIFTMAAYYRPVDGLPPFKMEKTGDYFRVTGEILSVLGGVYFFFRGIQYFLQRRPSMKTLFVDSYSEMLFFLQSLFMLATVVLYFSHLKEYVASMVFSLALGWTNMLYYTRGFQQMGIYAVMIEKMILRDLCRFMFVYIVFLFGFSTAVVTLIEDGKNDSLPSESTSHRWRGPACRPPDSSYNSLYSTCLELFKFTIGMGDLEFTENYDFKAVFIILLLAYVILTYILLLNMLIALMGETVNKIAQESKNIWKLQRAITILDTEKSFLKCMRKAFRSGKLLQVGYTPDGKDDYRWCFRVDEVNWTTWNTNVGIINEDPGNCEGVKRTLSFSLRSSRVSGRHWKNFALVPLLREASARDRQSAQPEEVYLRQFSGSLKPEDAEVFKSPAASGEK", "test": "Evaluation of human TRPV1 activity in stably expressing cells (Fluo 4-AM calcium fluorescence)", "type": "cell-based", "settings": "human TRPV1 stably expressing Flp-In 293 cells; fluorescence 485/525 nm, 27° C.", "text": "The full-length human TRPA1 gene (GenBank Accession Number: NM_007332) was amplified from plasmid pFN21AB7348 (manufactured by Kazusa DNA Research Institute), and the full-length human TRPV1 gene (GenBank Accession Number: NM_018727) was amplified from pFN21AE2418 (manufactured by Kazusa DNA Research Institute) using PCR. The obtained PCR product was subcloned into pcDNA5/FRT/TO (manufactured by ThermoFisher Scientific), and then introduced into Flp-In 293 cells (manufactured by Thermo Fisher Scientific) using a Flp-In T-REX system (manufactured by Thermo Fisher Scientific) to prepare a human TRPA1 stably expressing cell line and a human TRPV1 stably expressing cell line […]\nAfter replacing the culture medium with buffer solution, fluorescent calcium indicator Fluo 4-AM (manufactured by Dojindo Laboratories) was added and incubated at 37° C. for 1 hour. After replacing the culture solution with buffer solution again, the microplate was set to a fluorescence microplate reader FlexStation 3 (manufactured by Molecular Devices, LLC.). Diethyl sebacate was added at various concentrations at an internal temperature of 27° C., and the fluorescence intensity at a wavelength of 525 nm when excited at a wavelength of 485 nm was measured. […]"}}, "note": "“Also recorded” adds a separate entry of the source.", "data": [{"smiles": "CCOC(=O)CCCCCCCCC(=O)OCC", "note": "[Diethyl sebacate, diethyl sebacate]", "values": [{"measurement": "Carbonation sensation imparting evaluation result", "setting": "[1]; 0.1 ppm", "value": 1.5, "unit": "points"}, {"measurement": "Carbonation sensation imparting evaluation result", "setting": "[1]; 1 ppm", "value": 2.2, "unit": "points"}, {"measurement": "Carbonation sensation imparting evaluation result", "setting": "[1]; 10 ppm", "value": 2.5, "unit": "points"}, {"measurement": "Carbonation sensation imparting evaluation result", "setting": "[1]; 100 ppm", "value": 4.0, "unit": "points"}, {"measurement": "Carbonation sensation imparting evaluation result", "setting": "[1]; 1000 ppm", "value": 3.0, "unit": "points"}, {"measurement": "Carbonation sensation imparting evaluation result", "setting": "[1]; 10000 ppm", "value": 1.5, "unit": "points"}, {"measurement": "Carbonation sensation imparting evaluation result", "setting": "[1]; 20000 ppm", "value": 1.2, "unit": "points"}, {"measurement": "amelioration of mouthfeel (in words)", "setting": "[1]; compressed tablet candies", "value": "effect of ameliorating the mouthfeel was also confirmed"}, {"measurement": "fizziness imparting (in words)", "setting": "[1]; compressed tablet candies", "value": "fizziness can be imparted to compressed tablet candies"}, {"measurement": "amelioration of mouthfeel (in words)", "setting": "[2]", "value": "effect of ameliorating the mouthfeel was also confirmed"}, {"measurement": "fizziness enhancement (in words)", "setting": "[2]", "value": "fizziness of the cider-flavored carbonated beverage can be enhanced"}, {"measurement": "Fizziness enhancement evaluation result", "setting": "[2]; 0.1 ppm", "value": 1.3, "unit": "points"}, {"measurement": "Fizziness enhancement evaluation result", "setting": "[2]; 0.3 ppm", "value": 1.9, "unit": "points"}, {"measurement": "Fizziness enhancement evaluation result", "setting": "[2]; 1 ppm", "value": 3.7, "unit": "points"}, {"measurement": "Fizziness enhancement evaluation result", "setting": "[2]; 5 ppm", "value": 3.9, "unit": "points"}, {"measurement": "Fizziness enhancement evaluation result", "setting": "[2]; 10 ppm", "value": 3.7, "unit": "points"}, {"measurement": "Fizziness enhancement evaluation result", "setting": "[2]; 20 ppm", "value": 3.6, "unit": "points"}, {"measurement": "Fizziness enhancement evaluation result", "setting": "[2]; 50 ppm", "value": 3.3, "unit": "points"}, {"measurement": "Fizziness enhancement evaluation result", "setting": "[2]; 100 ppm", "value": 1.1, "unit": "points"}, {"measurement": "amelioration of mouthfeel (in words)", "setting": "[3]", "value": "effect of ameliorating the mouthfeel was also confirmed"}, {"measurement": "Carbonation sensation imparting evaluation result", "setting": "[3]; 0.1 ppm, 1 (almost no fizziness) to 5 (extremely imparted)", "value": 1.1, "unit": "points"}, {"measurement": "Carbonation sensation imparting evaluation result", "setting": "[3]; 0.3 ppm, 1 to 5", "value": 1.3, "unit": "points"}, {"measurement": "Carbonation sensation imparting evaluation result", "setting": "[3]; 1 ppm, 1 to 5", "value": 1.9, "unit": "points"}, {"measurement": "Carbonation sensation imparting evaluation result", "setting": "[3]; 5 ppm, 1 to 5", "value": 2.7, "unit": "points"}, {"measurement": "Carbonation sensation imparting evaluation result", "setting": "[3]; 10 ppm, 1 to 5", "value": 2.9, "unit": "points"}, {"measurement": "Carbonation sensation imparting evaluation result", "setting": "[3]; 20 ppm, 1 to 5", "value": 1.7, "unit": "points"}, {"measurement": "Carbonation sensation imparting evaluation result", "setting": "[3]; 50 ppm, 1 to 5", "value": 1.7, "unit": "points"}, {"measurement": "Carbonation sensation imparting evaluation result", "setting": "[3]; 100 ppm, 1 to 5", "value": 1.1, "unit": "points"}, {"measurement": "fizziness imparting (in words)", "setting": "[3]; contains no carbon dioxide", "value": "fizziness can be imparted to a black tea beverage with fruit juice"}, {"measurement": "TRPV1 activity", "setting": "human TRPV1", "value": "high TRPA1 activity and TRPV1 activity; also recorded: respond"}]}]}
